{"source": "patent US9351488B2", "about": "“Peracetic acid composition” (PEROXYCHEM LLC, priority 2006, dated 2016)", "assay": "Kill rate of peracetic acid 400-660 ppm with and without adjuvant", "format": "cell-based", "details": "peracetic acid 400-660 ppm in aqueous solution", "source_text": "Use of oxidative lysing agents such as peracetic acid in aqueous solution at concentration(s) ranging from 400-660 ppm provided only moderate kill rates with log reductions of 4-5.5. However, use of peracetic acid at the same concentrations with the addition of the adjuvant herein described produced improved kill rates up to complete destruction of the species with log reductions of 6 or recovery rates of 0.", "data": [{"smiles": "CC(=O)OO", "note": "[peracetic acid]", "values": [{"measurement": "log reductions", "result": "4-5.5 log"}]}]}
